Test results: patent US6008046A, “Drug and pesticide screening” (priority 1993, dated 1999)
Structures can show the parent of a compound that is named as a salt. Where two headings read alike, the source gives them in different places.

Key:
[1] = molecular target: normal GABA receptor (wild-type Rdl, cDNA 14.1) (Drosophila melanogaster, UniProt P25123, I283V); test: cell-based; conditions: for Reduction in GABA response (mean (s.d.)): xenopus oocytes
Protocol: (§1) The cloning of cDNA's from the GABAA locus allows for functional expression of mRNA derived from this and other subunit cDNA templates in various cell types.
(§2) In the Xenopus oocyte expression system, oocytes removed from ovaries of adult Xenopus are arrested at the first meiotic prophase. Because each oocyte is fairly large and has a large nucleus, it is technically easy to inject foreign DNA into the oocyte nucleus. Typically, 20-40 nl is injected through a finely drawn glass capillary. The endogenous Xenopus RNA polymerases transcribe this injected exogenous DNA. Mertz and Gurdon, Proc. Natl. Acad. Sci. USA 74:1502 (1977). The exogenous DNA is assembled into chromatin, but there is no replication of injected duplex DNA in the oocyte. Gargilo and Worcel, J. Mol. Biol., 170:699 (1983); Ryoji and Worcel, Cell 37:21 (1984). Single-stranded DNA (e.g., DNA obtained by cloning in M13 vectors), is converted to duplex form within the oocyte nucleus. The Xenopus oocyte also efficiently translates mRNA injected into its cytoplasm.
(§3) Various studies have shown that this Xenopus expression system is feasible for expression of foreign DNA. Kreig and Melton, EMBO J 4:3464 (1985); Masu et al., Nature 329:836 (1987); Wilson et al., Cell 47:589 (1986); see also, Old and Primrose, Principles of Gene Manipulation, 4th ed. (Blackwell Scientific Publications, Oxford, 1989)(pp. 296-302).
(§4) In the system of the present invention, messenger RNA produced from cDNA template, (both messenger RNA and cDNA template are considered to be part of the present invention), is injected into Xenopus eggs which then express the protein. By patch clamp electrophysiology experiments, one can then determine whether the cell is expressing the protein (measured by electrical impulses) and whether this expression can be altered by the compound of interest.
(§5) Currents were recorded in 96 mM NaCl, 2 mM Kcl, 1.8 mM MgCl2, and 5 mM Hepes. Recordings were made 1-5 days after injection. […] Dieldrin was dissolved in DMSO (dimethylsulfoxide), then diluted to a final concentration of 0.1% DMSO. The single base pair substitution of GCG (alanine) to TCG (serine) was introduced into the sensitive cDNA 14.1 by subcloning in a restriction fragment from the insensitive cDNA. The region containing the mutation was then amplified by PCR from total embryonic RNA from Rdl^R-MD flies and subsequently digested with EcoRV and Acc1. This restriction fragment was then cloned into the sensitive cDNA 14.1 cut with the same enzymes to yield the Ala to Ser mutant construct.
(§6) In order to test the effect of the resistance-associated Ala to Ser mutation, this substitution was introduced into the sensitive cDNA (as discussed above). […] Pharmacological comparisons were made using thirty oocytes injected with each type of RNA.

[2] = molecular target: T1, mutant GABA receptor (Ala to Ser mutant Rdl) (Drosophila melanogaster, UniProt P25123, A301S/I283V); test: Two-electrode voltage clamp of Xenopus oocytes expressing Ala to Ser mutant GABA receptor; type: cell-based; conditions: for response of mutant channels to GABA and muscimol compared with wild-type channels: Ala to Ser mutant vs wild-type; for sensitivity of Ala>Ser mutant compared with wild-type: thirty oocytes with each type of RNA (FIGS. 10b-e); for Reduction in GABA response (mean (s.d.)): xenopus oocytes
T1 construct: expressed in transfected cells; host or cells: Xenopus oocytes injected with RNA derived from the Ala to Ser mutant of cDNA 14.1
T1 sequence (P25123 other isoform, or with tags, fused parts or gaps I283V/A301S): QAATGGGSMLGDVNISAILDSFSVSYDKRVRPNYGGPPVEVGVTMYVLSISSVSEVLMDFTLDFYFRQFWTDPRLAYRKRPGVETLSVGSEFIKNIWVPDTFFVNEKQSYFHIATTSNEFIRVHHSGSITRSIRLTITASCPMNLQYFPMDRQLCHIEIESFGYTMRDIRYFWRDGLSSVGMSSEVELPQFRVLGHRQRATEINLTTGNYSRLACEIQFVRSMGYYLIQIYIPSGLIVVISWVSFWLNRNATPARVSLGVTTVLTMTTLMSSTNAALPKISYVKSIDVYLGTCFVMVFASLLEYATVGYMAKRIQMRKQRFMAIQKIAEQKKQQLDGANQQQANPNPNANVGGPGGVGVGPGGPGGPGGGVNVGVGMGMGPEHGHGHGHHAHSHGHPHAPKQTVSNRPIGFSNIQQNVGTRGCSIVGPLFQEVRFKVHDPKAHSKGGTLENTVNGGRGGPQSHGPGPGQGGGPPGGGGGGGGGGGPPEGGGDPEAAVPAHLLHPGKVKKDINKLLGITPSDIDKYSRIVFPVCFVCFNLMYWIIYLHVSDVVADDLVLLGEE
Protocol: as §1, §2, §3, §4, §5, §6

[3] = test system: PTX binding sites on the GABA receptor; conditions: cyclodiene-resistant vs susceptible strains; Matsumura et al. 1987; cited from earlier work
[4] = test system: mutant GABA receptor (Ala to Ser mutant Rdl); test: Two-electrode voltage clamp of Xenopus oocytes expressing Ala to Ser mutant GABA receptor; type: cell-based, Drosophila melanogaster
Protocol: as §1, §2, §3, §4, §5, §6

[5] = test system: cultured Rdl^R-MD neurons; test: Whole cell patch clamp of cultured Rdl^R-MD neurons; type: cell-based, Drosophila melanogaster; conditions: PTX
D. melanogaster [6] = conditions: 30 μg dieldrin, ffrench-Constant et al. 1990, cited from earlier work
[7] = test system: larval central nerve cord of Rdl^R-MD; conditions: dieldrin, 10 μM concentration; Bloomquist et al. 1991; cited from earlier work
D. melanogaster [8] = test: Dieldrin contact bioassay, fly mortality in coated vials after 24 hours; type: in vivo; conditions: for mortality at 0.03 mg: Drosophila melanogaster, 24 h, 30 μg dieldrin
Protocol: More specifically, FIG. 2 depicts the crosses used to rescue cyclodiene insecticide susceptibility via P-element-mediated germline transformation. As depicted, embryos containing an endogenous source of transposase (Δ2,3) were injected with a cosmid carrying a susceptible copy of the gene and a copy of the mini-white eye color gene as a selectable marker. Successful G0 transformants with red eyes (w^+) were subsequently crossed into flies hemizygous for resistance and a deficiency uncovering the resistance gene Df(3L)29A6. These flies carrying the w^+ S insert (transferred DNA) are susceptible to a dose of 30 μg dieldrin, whereas their siblings without the insert are resistant to this dose.
In order to more precisely localize the gene within the 200 kb of DNA isolated from the 66F subregion, new chromosomal rearrangements were induced using γ irradiation and screened for those uncovering the resistance gene. Chromosomal rearrangements were generated by exposing male SS flies with multiply marked third chromosomes (rucuca strain) to 4,000 rads of radiation in a γ radiation (cesium) source, and then outcrossing these R/R (Rdl^R /Rdl^R) females. New rearrangements uncovering resistance were screened for by exposing their progeny at a dose of 30 μg dieldrin, at which only R/Df (Rdl^R /Df) flies will survive (all the expected RS progeny will die at this dose level except for any R/- flies wherein "-" is any new rearrangement uncovering the resistance gene), survivors were crossed to In(3LR)TM3/Sb and maintained as a balanced stock (Df/In(3LR)TM3).
Approximately 50,000 flies were screened. For screening, 20 ml glass scintillation vials were coated internally with 30 μg of dieldrin in acetone and rolled until dry. Twenty to thirty flies per vial were added and mortality was recorded after 24 hours at 25° C..
As both of the cytologically visible rearrangements giving two new recombinant bands on a Southern with probes from cosmid 6 have only one breakpoint within 66F, this cluster of breakpoints which disrupts the gene must therefore mark its location. In order to determine whether cosmid 6 contained a functional copy of the gene for cyclodiene resistance, P-element germline transformation with this cosmid was carried out. Following successful isolation of a w^+ transformant, linkage to the insert to the second chromosome was established after crossing male G0 progeny to a stock bearing markers on the second and third chromosomes (FIG. 2). […]
Entomol., 83:1733, (1990). […] These field-collected and isofemale strains were used in the initial identification of the resistance-associated mutation, but studies of linkage to other restriction-site markers in D. melanogaster were done with isochromsomal lines to ensure that only a single chromosome was being analyzed.

chloride ion channels = conditions: thiocyanate ions vs chloride; cited from earlier work
[9] = wild-type mRNA, voltage clamped at -60 mV
[10] = read-out: Reduction in GABA response (mean (s.d.))

Chain of normal GABA receptor (wild-type Rdl, cDNA 14.1) (P25123 other isoform, or with tags, fused parts or gaps I283V): as the sequence (P25123 other isoform, or with tags, fused parts or gaps I283V/A301S) above, with S257A counted along it

## NCCCC(=O)O [GABA, γ-aminobutyric acid]
[1]; after PTX or dieldrin, washed with saline 20 min, all experiments (wild-type and mutant)
  recovery of response to GABA during washing: at least 50%
[1]; wild-type mRNA
  reversal potential of GABA-evoked currents: -20 to -25 mv
[1]; [9]
  maximum current, lower end of range: 50 nA
  maximum current, upper end of range: > 5 μA
[2]
  response of mutant channels to GABA and muscimol compared with wild-type channels: apparently identical to the wild-type channels

## C=C(C)[C@@H]1[C@H]2OC(=O)[C@@H]1[C@]1(O)C[C@H]3O[C@]34C(=O)O[C@H]2[C@]14C [PTX, Picrotoxinin]
[1]; [10]
  inhibition at 1 µM: 73%
  inhibition at 10 µM: 96%
  inhibition at 50 µM: 96%
[1]; read-out: block of the GABA response, 1 μM PTX, wild-type "sensitive" cDNA (FIG. 10b)
  inhibition at 1 µM: > 70%
[1]; 1 µM
  Reduction in GABA response (mean (s.d.)): 78 (12) %
[1]; 10 µM
  Reduction in GABA response (mean (s.d.)): 90 (13) %
[1]; 50 µM
  Reduction in GABA response (mean (s.d.)): 97 (5) %
[3]
  affinity for PTX of resistant strains relative to susceptibles: one tenth
[4]; PTX, mutant vs wild-type oocytes
  reduction in sensitivity induced by the mutation: approximately 100 fold
[2]; 1 μM PTX, Ala to Ser mutant (FIG. 10d)
  block of the GABA response, in words: little effect
[2]; [10]
  inhibition at 1 µM: 8%
  inhibition at 10 µM: 61%
  inhibition at 50 µM: 75%
[2]; read-out: Reduction in GABA response (mean (s.d.)), Mutant, 1 μM PTX, oocytes with GABA EC50 […] μM, n = 6
  inhibition at 1 µM: 8%
[2]
  sensitivity of Ala>Ser mutant compared with wild-type: consistently lower sensitivity
[2]; 10 µM
  Reduction in GABA response (mean (s.d.)): 48 (6) %
[2]; 50 µM
  Reduction in GABA response (mean (s.d.)): 56 (6) %
[5]
  reduction in sensitivity: approximately 100 fold

## C[N+]1(C)CCc2cc3c(cc2[C@H]1[C@@H]1OC(=O)c2c1ccc1c2OCO1)OCO3 [bicuculline, (-)-bicuculline methiodide]
[1]; bicuculline 100 μM with 10 μM GABA (FIG. 10a)
  block of GABA-evoked currents by bicuculline: not blocked

## ClC1=C(Cl)[C@]2(Cl)[C@@H]3[C@@H]4C[C@@H]([C@H]5O[C@@H]45)[C@@H]3[C@@]1(Cl)C2(Cl)Cl [dieldrin]
[1]; dissolved in DMSO, diluted to final 0.1% DMSO, concentration above 10 μM not possible
  solubility: limited solubility
[1]; [10]
  inhibition at 10 µM: 78%
[1]; read-out: block of the GABA response, 10 μM dieldrin, wild-type "sensitive" cDNA (FIG. 10c)
  inhibition at 10 µM: > 75%
[1]; 10 µM
  Reduction in GABA response (mean (s.d.)): 80 (6) %
D. melanogaster [6]; RR flies
  survival of RR flies: 85%
D. melanogaster [6]; RS and SS flies
  kill of RS and SS genotypes: kills all RS and SS genotypes
[7]
  sensitivity of larval central nerve cord of Rdl^R-MD: Insensitivity
[4]; dieldrin, from comparison of effects of lower doses
  loss of sensitivity conferred by the mutation: 50-100 fold
[2]; […] μM dieldrin, insensitive mutant cDNA (FIG. 10e)
  block of the GABA response, in words: little effect
[2]; mutation of resistant D. melanogaster
  sensitivity of expressed chloride ion channels carrying the Ala to Ser mutation: insensitivity
[2]; [10]
  inhibition at 10 µM: 23%
[2]
  sensitivity of Ala>Ser mutant compared with wild-type: consistently lower sensitivity
[2]; 10 µM
  Reduction in GABA response (mean (s.d.)): 12 (11) %
D. melanogaster [8]; flies carrying the cosmid 6 insert (Rdl^R/Rdl^S), n=221
  mortality at 0.03 mg: 93%
D. melanogaster [8]; siblings without the insert (Rdl^R/Df(3L)29A6), n=214
  mortality at 0.03 mg: 7%
D. melanogaster [8]; flies carrying the w+ S insert
  susceptibility to 30 μg dieldrin, in words: susceptible
D. melanogaster [8]; siblings without the insert
  susceptibility to 30 μg dieldrin, in words: resistant

## NCc1cc(=O)[nH]o1 [muscimol, muscimol hydrobromide]
[2]
  response of mutant channels to GABA and muscimol compared with wild-type channels: apparently identical to the wild-type channels

## N#CS [thiocyanate]
Chloride ion channels
  permeation through chloride ion channels relative to chloride: seven
